From the NIST ThermoML archive (doi:10.1021/je700260f)

Conditions: Liquid, Vibrating tube method

FC(C(F)(F)F)C(F)(F)F [1,1,1,2,3,3,3-heptafluoropropane]
Conditions | mass density [kg/m3]
333.15 K, 33156 kPa | 1451.3
333.15 K, 33196 kPa | 1451.6
333.15 K, 33224 kPa | 1451.7
333.15 K, 33268 kPa | 1451.7
333.15 K, 33317 kPa | 1451.9
333.15 K, 33346 kPa | 1452
333.15 K, 33391 kPa | 1452.2
333.15 K, 33421 kPa | 1452.4
333.15 K, 33465 kPa | 1452.5
333.15 K, 33498 kPa | 1452.4
333.15 K, 33532 kPa | 1452.7
333.15 K, 33566 kPa | 1452.8
333.15 K, 33615 kPa | 1453
333.15 K, 33639 kPa | 1453.3
333.15 K, 33683 kPa | 1453.3
333.15 K, 33713 kPa | 1453.3
333.15 K, 33753 kPa | 1453.7
333.15 K, 34447 kPa | 1456.1
333.15 K, 34493 kPa | 1456.2
333.15 K, 34519 kPa | 1456.4
333.15 K, 34541 kPa | 1456.4
333.15 K, 34553 kPa | 1456.4
333.15 K, 34564 kPa | 1456.6
333.15 K, 34570 kPa | 1456.7
333.16 K, 8979 kPa | 1316.3
333.16 K, 9012 kPa | 1316.5
333.16 K, 9767 kPa | 1323.1
333.16 K, 9793 kPa | 1323.2
333.16 K, 9821 kPa | 1323.4
333.16 K, 9857 kPa | 1323.7
333.16 K, 9885 kPa | 1324
333.16 K, 9911 kPa | 1324.3
333.16 K, 9936 kPa | 1324.5
333.16 K, 9961 kPa | 1324.7
333.16 K, 9986 kPa | 1324.9
333.16 K, 10016 kPa | 1325.2
333.16 K, 10042 kPa | 1325.3
333.16 K, 10070 kPa | 1325.4
333.16 K, 10094 kPa | 1325.8
333.16 K, 10119 kPa | 1326.1
333.16 K, 10148 kPa | 1326.3
333.16 K, 10178 kPa | 1326.6
333.16 K, 10203 kPa | 1326.6
333.16 K, 10236 kPa | 1326.9
333.16 K, 10265 kPa | 1327.2
333.16 K, 10287 kPa | 1327.4
333.16 K, 10312 kPa | 1327.6
333.16 K, 10338 kPa | 1327.9
333.16 K, 10367 kPa | 1328.1
333.16 K, 10397 kPa | 1328.3
333.16 K, 10430 kPa | 1328.5
333.16 K, 10457 kPa | 1328.7
333.16 K, 10483 kPa | 1329
333.16 K, 10515 kPa | 1329.4
333.16 K, 10537 kPa | 1329.3
333.16 K, 10570 kPa | 1329.8
333.16 K, 10596 kPa | 1329.9
333.16 K, 10624 kPa | 1330.1
333.16 K, 10654 kPa | 1330.5
333.16 K, 10839 kPa | 1331.8
333.16 K, 10866 kPa | 1332.1
333.16 K, 10896 kPa | 1332.3
333.16 K, 10918 kPa | 1332.5
333.16 K, 10947 kPa | 1332.7
333.16 K, 10979 kPa | 1332.9
333.16 K, 11112 kPa | 1334
333.16 K, 11141 kPa | 1334.3
333.16 K, 11160 kPa | 1334.5
333.16 K, 11186 kPa | 1334.6
333.16 K, 11212 kPa | 1334.9
333.16 K, 11245 kPa | 1335.1
333.16 K, 11275 kPa | 1335.4
333.16 K, 11298 kPa | 1335.5
333.16 K, 11320 kPa | 1335.7
333.16 K, 11353 kPa | 1336
333.16 K, 11388 kPa | 1336.3
333.16 K, 11415 kPa | 1336.6
333.16 K, 11450 kPa | 1336.7
333.16 K, 11481 kPa | 1337
333.16 K, 11534 kPa | 1337.4
333.16 K, 11792 kPa | 1339.3
333.16 K, 11824 kPa | 1339.6
333.16 K, 11847 kPa | 1339.8
333.16 K, 11870 kPa | 1339.9
333.16 K, 11897 kPa | 1340.1
333.16 K, 11937 kPa | 1340.4
333.16 K, 11965 kPa | 1340.6
333.16 K, 11989 kPa | 1340.8
333.16 K, 12024 kPa | 1341.1
333.16 K, 12062 kPa | 1341.3
333.16 K, 12090 kPa | 1341.4
333.16 K, 12120 kPa | 1341.8
333.16 K, 12147 kPa | 1342
333.16 K, 12167 kPa | 1342.2
333.16 K, 12202 kPa | 1342.3
333.16 K, 12226 kPa | 1342.6
333.16 K, 12261 kPa | 1342.8
333.16 K, 12289 kPa | 1343
333.16 K, 12321 kPa | 1343.4
333.16 K, 12345 kPa | 1343.5
333.16 K, 12385 kPa | 1343.8
333.16 K, 12416 kPa | 1344
333.16 K, 12443 kPa | 1344.2
333.16 K, 12466 kPa | 1344.3
333.16 K, 12886 kPa | 1347.5
333.16 K, 12914 kPa | 1347.5
333.16 K, 12942 kPa | 1347.8
333.16 K, 12966 kPa | 1347.9
333.16 K, 12994 kPa | 1348.2
333.16 K, 13023 kPa | 1348.2
333.16 K, 13053 kPa | 1348.6
333.16 K, 13082 kPa | 1348.9
333.16 K, 13115 kPa | 1349.1
333.16 K, 13140 kPa | 1349.1
333.16 K, 13164 kPa | 1349.4
333.16 K, 13196 kPa | 1349.7
333.16 K, 13220 kPa | 1349.7
333.16 K, 13244 kPa | 1349.9
333.16 K, 13272 kPa | 1350.2
333.16 K, 13304 kPa | 1350.5
333.16 K, 13324 kPa | 1350.5
333.16 K, 13344 kPa | 1350.6
333.16 K, 13368 kPa | 1350.9
333.16 K, 13394 kPa | 1351.1
333.16 K, 13432 kPa | 1351.2
333.16 K, 13461 kPa | 1351.4
333.16 K, 13494 kPa | 1351.7
333.16 K, 13518 kPa | 1351.9
333.16 K, 13633 kPa | 1352.7
333.16 K, 13666 kPa | 1352.9
333.16 K, 13690 kPa | 1353
333.16 K, 13724 kPa | 1353.1
333.16 K, 13921 kPa | 1354.7
333.16 K, 13954 kPa | 1354.9
333.16 K, 13991 kPa | 1355.1
333.16 K, 14017 kPa | 1355.3
333.16 K, 14050 kPa | 1355.5
333.16 K, 14075 kPa | 1355.8
333.16 K, 14106 kPa | 1355.9
333.16 K, 14140 kPa | 1356.2
333.16 K, 14828 kPa | 1360.7
333.16 K, 14853 kPa | 1360.9
333.16 K, 14892 kPa | 1361.2
333.16 K, 14922 kPa | 1361.4
333.16 K, 14953 kPa | 1361.5
333.16 K, 14979 kPa | 1361.7
333.16 K, 15001 kPa | 1361.9
333.16 K, 15034 kPa | 1362.1
333.16 K, 15054 kPa | 1362.3
333.16 K, 15081 kPa | 1362.5
333.16 K, 15117 kPa | 1362.6
333.16 K, 15153 kPa | 1362.8
333.16 K, 15179 kPa | 1363
333.16 K, 15260 kPa | 1363.6
333.16 K, 15320 kPa | 1364
333.16 K, 15346 kPa | 1364.2
333.16 K, 15370 kPa | 1364.4
333.16 K, 15404 kPa | 1364.4
333.16 K, 15436 kPa | 1364.7
333.16 K, 15464 kPa | 1364.9
333.16 K, 15500 kPa | 1365.2
333.16 K, 15533 kPa | 1365.2
333.16 K, 15561 kPa | 1365.5
333.16 K, 15593 kPa | 1365.8
333.16 K, 15630 kPa | 1366
333.16 K, 15658 kPa | 1366.2
333.16 K, 15689 kPa | 1366.4
333.16 K, 15953 kPa | 1368
333.16 K, 15985 kPa | 1368.1
333.16 K, 16013 kPa | 1368.3
333.16 K, 16049 kPa | 1368.5
333.16 K, 16085 kPa | 1368.9
333.16 K, 16105 kPa | 1369.1
333.16 K, 16141 kPa | 1369.2
333.16 K, 16169 kPa | 1369.4
333.16 K, 16193 kPa | 1369.6
333.16 K, 16223 kPa | 1369.6
333.16 K, 16248 kPa | 1370
333.16 K, 16281 kPa | 1370.1
333.16 K, 16314 kPa | 1370.3
333.16 K, 16339 kPa | 1370.4
333.16 K, 16363 kPa | 1370.5
333.16 K, 16388 kPa | 1370.7
333.16 K, 16416 kPa | 1370.9
333.16 K, 16540 kPa | 1371.7
333.16 K, 16572 kPa | 1371.9
333.16 K, 16600 kPa | 1372
333.16 K, 16655 kPa | 1372.4
333.16 K, 16788 kPa | 1373.2
333.16 K, 16821 kPa | 1373.3
333.16 K, 16850 kPa | 1373.5
333.16 K, 16876 kPa | 1373.7
333.16 K, 16909 kPa | 1373.8
333.16 K, 16937 kPa | 1374.2
333.16 K, 16964 kPa | 1374.2
333.16 K, 16992 kPa | 1374.4
333.16 K, 17013 kPa | 1374.5
333.16 K, 17038 kPa | 1374.7
333.16 K, 17063 kPa | 1374.9
333.16 K, 17088 kPa | 1374.9
333.16 K, 17109 kPa | 1375.2
333.16 K, 17137 kPa | 1375.3
333.16 K, 17162 kPa | 1375.4
333.16 K, 17189 kPa | 1375.7
333.16 K, 17215 kPa | 1375.7
